The source of these data is patent publication US9353152B2, “Induction of the mitochondrial permeability transition” (NewSouth Innovations Pty Limited, priority 2002, dated 2016).

“And” between values parts separate entries of the source, which are not always exact repeats. Equal entries are not always repeated.

Series [1] deals with T1, MPTP (Rattus norvegicus, UniProt Q09073).
T1 construct: Mitochondria were isolated from the livers of ˜250 g male Wistar rats; from tissue; host or cells: rat liver mitochondria (male Wistar rats)
T1 sequence (Q09073 2-298 limits assumed): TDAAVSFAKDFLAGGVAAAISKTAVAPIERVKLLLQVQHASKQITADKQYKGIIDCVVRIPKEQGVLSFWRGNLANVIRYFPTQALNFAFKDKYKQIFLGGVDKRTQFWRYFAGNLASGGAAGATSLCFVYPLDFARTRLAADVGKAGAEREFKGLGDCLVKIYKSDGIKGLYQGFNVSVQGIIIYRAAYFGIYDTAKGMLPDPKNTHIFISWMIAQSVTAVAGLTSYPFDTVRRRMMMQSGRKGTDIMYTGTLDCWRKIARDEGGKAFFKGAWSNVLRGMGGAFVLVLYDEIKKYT
It counts as biochemical.

Series [2] in a line: Titration of arsenoxide compounds with DTT. It counts as physicochemical. As to conditions: GSAO versus Compound 1.
Series [3] addresses T2, mitochondrial permeability transition pore (Rattus norvegicus, UniProt Q09073).
T2 construct: Mitochondria were isolated from the livers of ˜250 g male Wistar rats; from tissue; host or cells: rat liver mitochondria (male Wistar rats)
T2 sequence (Q09073 2-298 limits assumed): T1 sequence (Q09073 2-298 limits assumed)
The format is biochemical. As to conditions: for a given concentration.

Series [4] deals with BAE cells. The series is described as follows: Cell proliferation and viability assay (MTT). It counts as cell-based, bovine. On the procedure: (§1) BAE or human pancreatic carcinoma BxPC-3 cells were seeded at a density of 10^3 cells per well into 96 well plates in DMEM containing 10% foetal bovine serum and allowed to adhere for 24 h. Cells were washed and incubated with DMEM containing 10% foetal bovine serum and GSAO or o-GSAO and cultured for a further 48 h. Some BAE cells were arrested for 24 h in medium containing 0.25% serum and cultured for a further 48 h in medium containing 0.25% or 10% serum, in the presence of GSAO or o-GSAO. Viable attached cells were determined using MTT.

The test system of series [5] is human pancreatic carcinoma BxPC-3 cells. The series is described as follows: Cell proliferation and viability assay (MTT). As to conditions: Homo sapiens, BXPC-3; 10% serum, 48 h; read-out: IC50 for proliferation arrest of BxPC-3 cells. It counts as cell-based. On the procedure:
as §1

Series [6] is described as follows: Toxicity of o-GSAO in Balb-C mice. It counts as in vivo. On the procedure: FIG. 22. Toxicity of o-GSAO. Balb-C mice (6-8 week old, 3 per group) were treated subcutaneously with 1 or 10 mg/kg/day of o-GSAO in 0.1 mL of PBS. The data points are the mean±SE of the mice weights.
Series [7] is described as follows: Side-effects in Balb-C nude mice bearing BxPC-3 tumours. The format is in vivo. On the procedure: Female 7 to 9 week old Balb C nude were used (UNSW Biological Resource Centre). Mice were held in groups of 3 to 5 at a 12 h day and night cycle and were given animal chow and water ad libidum. A suspension of 2.5×10^6 BxPC-3 cells in 0.2 mL of PBS was injected subcutaneously in the proximal midline. Tumours were allowed to establish and grow to a size of ˜40 mm^3 after which they were randomised into four groups. Tumour volume was calculated using the relationship, a·b^2·0.52, where a is the longest and b the shortest diameter. Animals were treated with either GSAO or o-GSAO at a dose 1 or 10 mg/kg/day in 0.1 mL of PBS. The compounds were administered subcutaneously at a site distant from the tumour. Tumour volume and animal weight was measured every 2 or 3 days.
Balb-C nude mice bearing ˜40 mm^3 BxPC-3 tumours were randomised into four groups (n=10 or 11 per group) and treated subcutaneously with either GSAO (part A) or o-GSAO (part B) at 1 or 10 mg/kg/day in 0.1 mL of PBS. Parts C and D are the mice weights for the respective groups, where the arrow indicates start of treatment. The data points are the mean±SE of the tumour volumes or mice weights. Treatment with 10 mg/kg o-GSAO (part B) was stopped at day 14 due to necrosis and inflammation at sites of injection in 7 out of 11 mice (3/11 with severe ulcers, 4/11 with medium ulcers).

Series [8] concerns BAE cells.
The subject of series [9] is BAE cells. The series is described as follows: cells. The following applies: Bos taurus, read-out: IC50 (μM)*.
Series [10] addresses T3, ANT (Rattus norvegicus, UniProt Q09073).
T3 construct: Mitochondria were isolated from the livers of ˜250 g male Wistar rats; from tissue; host or cells: rat liver mitochondria (male Wistar rats)
T3 sequence (Q09073 2-298 limits assumed): T1 sequence (Q09073 2-298 limits assumed)
The series is described as follows: Binding of GSAO-B to ANT (streptavidin pull-down, Western blot). The following applies: 100 μM GSAO-B, 1 h; competed by 4-fold molar excess of dimercaptopropanol. On the procedure: Rat liver mitochondria were suspended at 1 mg of protein per mL at 25° C. in 3 mM HEPES-KOH, pH 7.0 buffer containing 213 mM mannitol, 71 mM sucrose and 10 mM sodium succinate and incubated with 100 μM GSAO-B in absence or presence of 400 μM 2,3-dimercaptopropanol (Fluka, Buchs, SG, Switzerland) at room temperature on a rotating wheel for 1 h. The labelled mitochondria were washed three times with PBS and sonicated in 0.3 mL of ice-cold 25 mM Tris, pH 7.4 buffer containing 140 mM NaCl, 2.7 mM KCl, 0.5% Triton X-100, 0.05% Tween-20, 10 μM leupeptin, 10 μM aprotinin, 50 μg·mL^−1 […] and 5 mM EDTA. Lysate was clarified by centrifugation at 18000 g for 10 min at 4° C. and incubated with 30 μL of streptavidin-dynabeads (Dynal, Oslo, Norway) for 60 min at 4° C. on a rotating wheel to isolate the biotin-labelled proteins. The beads were washed 5 times with sonication buffer and the biotin-labelled proteins were released from the beads by boiling in 30 μl of SDS-Laemmli buffer for 2 minutes. Samples were resolved on 8-16% gradient iGels under reducing conditions and transferred to PVDF membrane. Proteins were detected by Western blot using a 1:500 dilution of goat anti-human ANT polyclonal antibody (Santa Cruz Biotechnology, Santa Cruz, Calif.) and 1:2000 dilution of rabbit anti-goat peroxidase-conjugated antibodies (Dako, Carpinteria, Calif.).

Setting [11] is: 10 mg/kg/day o-GSAO s.c., day 14.

In the case of `NC(CCC(=O)NC(CSCC(=O)Nc1ccccc1[As](O)O)C(=O)NCC(=O)O)C(=O)O` (stereo not drawn) [Compound 1, NH2-Glu-Cys-(CH2CONH—C6H4-o-As{OH}2)-Gly-OH], the “MPTP Swelling Rate Increase/GSAO* Mean” value in series [1] is given as 16.3. Moreover, the “arsenical reactivity (titration with DTT)” value in [2] is given as “no significant difference”. Moreover, the “half-time for maximal swelling, times faster compared to GSAO” value in series [3] is on record as 3-5 times. For the same molecule, in [4], the “times more effective than GSAO at inhibiting proliferation of BAE cells” value is roughly 50 times. Moreover, the “selectivity for proliferating versus growth-quiescent endothelial cells” value in series [4] (0.25% or 10% serum, 48 h) is on record as “not selective for proliferating (angiogenic) endothelial cells”. The IC50 in series [4] (Bos taurus, 10% serum, 48 h, read-out: IC50 for proliferation arrest of BAE cells) was 160 ± 30 nM; in series [5], roughly 2000 nM; in series [9], 0.16 µM. In addition, the “Side-effects of o-GSAO administration” value is “nil” in series [6] (1 mg/kg/day s.c., day 1); “ruffled fur; mild hyperactivity^b” in [6] (1 mg/kg/day s.c., day 2); “ruffled fur; mild hyperactivity^b” in series [6] (1 mg/kg/day s.c., day 3); “ruffled fur; mild hyperactivity^b” in series [6] (1 mg/kg/day s.c., day 4); “ruffled fur; hyperactivity; clonic” in series [6] (1 mg/kg/day s.c., day 5); “ruffled fur; hyperactivity; clonic” in series [6] (1 mg/kg/day s.c., day 6). For the same molecule, the “Side-effects of o-GSAO administration” value in series [6] (1 mg/kg/day s.c., day 7) is “ruffled fur; hyperactivity; clonic”; in series [6] (1 mg/kg/day s.c., day 8), “ruffled fur; hyperactivity^b”; in series [6] (1 mg/kg/day s.c., day 9), “ruffled fur; mild hyperactivity^b”; in series [6] (1 mg/kg/day s.c., day 10) it was “ruffled fur; mild hyperactivity^b”; in [6] (1 mg/kg/day s.c., day 11), “ruffled fur; mild hyperactivity^b”; in [6] (1 mg/kg/day s.c., day 13) it was “nil”. The “Side-effects of o-GSAO administration” value is “nil” in series [6] (1 mg/kg/day s.c., day 14); “ruffled fur; hyperactivity; mild” in [6] (10 mg/kg/day s.c., day 1); “ruffled fur; mild hyperactivity^b” in series [6] (10 mg/kg/day s.c., day 2); “ruffled fur; mild hyperactivity^b” in series [6] (10 mg/kg/day s.c., day 3); “ruffled fur; mild hyperactivity^b” in series [6] (10 mg/kg/day s.c., day 4); “ruffled fur; hyperactivity; clonic” in [6] (10 mg/kg/day s.c., day 5). The “Side-effects of o-GSAO administration” value in [6] (10 mg/kg/day s.c., day 6) is given as “ruffled fur; hyperactivity; clonic”; in series [6] (10 mg/kg/day s.c., day 7) it was “ruffled fur; hyperactivity; clonic”; in [6] (10 mg/kg/day s.c., day 8) it was “ruffled fur; hyperactivity^b”; in series [6] (10 mg/kg/day s.c., day 9), “ruffled fur; mild hyperactivity^b”; in [6] (10 mg/kg/day s.c., day 10) it was “ruffled fur; mild hyperactivity^b”; in series [6] (10 mg/kg/day s.c., day 11), “ruffled fur; mild hyperactivity^b”. Also, the “Side-effects of o-GSAO administration” value in series [6] (10 mg/kg/day s.c., day 13) is given as “skin necrosis at the injection site”; in series [6] (10 mg/kg/day s.c., day 14), “skin necrosis at the injection site”. The weight loss result in series [6] (1 or 10 mg/kg/day s.c., Balb C mice) is “no weight loss observed”; in series [7] (10 mg/kg/day o-GSAO s.c.), “some weight loss”. Also, in series [6] (Balb C mice), the “skin effects with repeated injections in the same area” value was “thickening of the skin and occasional necrosis”. The “mice with medium ulcers” value in [7] (setting [11]) is listed as 4/11. Also, in series [7] (setting [11]), the “mice with severe ulcers” value was 3/11. In series [7] (10 mg/kg/day o-GSAO s.c., treatment stopped at day 14), the “mice with necrosis and inflammation at sites of injection” value is 7 out of 11 and 7 of 11. Also, the “behavioural side-effects in Balb C nude mice” value in series [7] (1 or 10 mg/kg/day s.c.) is “not observed”. Moreover, the “Fold Increase” value in [8] is recorded as 53.2.

Regarding `O=[As]c1ccc(NC(=O)CSC[C@H](NC(=O)CC[C@H](NC(=O)CCCCCNC(=O)CCCCCNC(=O)CCCC[C@@H]2SC[C@@H]3NC(=O)N[C@@H]32)C(=O)O)C(=O)NCC(=O)O)cc1` (stereo partly shown) [GSAO-B, 4-(N—(S—(N-(6-((6-((biotinoyl)amino)hexanoyl)amino)hexanoyl)-glutathionyl)acetyl)amino) phenylarsenoxide], in series [10], the “labelling of ANT with GSAO-B” value was “Direct interaction”.
